Assay results published in PubChem BioAssay AID330 (DTP/NCI, 2004).
“And” between values parts separate entries of the source, which are not always exact repeats. Equal values may be shown once. Toxic doses and inconclusive results are not listed. The calls were made as follows: active = survival T/C of 150% or more; inactive = T/C below 125% in these data.

System: P388 leukemia ip, CD2F1 mice, survival T/C
Experiment: NCI In Vivo Anticancer Drug Screen. Data for tumor model P388 Leukemia (intraperitoneal) in CD2F1 (CDF1) mice
Conditions: endpoint: median survival time, higher = longer survival
Procedure, shortened: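 Mice carrying the transplanted tumor received test compound or vehicle. Survival was recorded in each group, and the value is the treated-group measurement divided by that of the vehicle-treated control group.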

[1] = dose: 12.5 mg/kg/injection, schedule: Q01DX009 (ip), vehicle: saline
[2] = dose: 100.0 mg/kg/injection, schedule: Q01DX009 (ip), vehicle: Klucel (hydroxypropylcellulose) (HPC)
[3] = dose: 200.0 mg/kg/injection, schedule: Q01DX009 (ip), vehicle: Klucel (hydroxypropylcellulose) (HPC)
[4] = dose: 12.5 mg/kg/injection, schedule: Q01DX005 (ip), vehicle: Klucel (hydroxypropylcellulose) (HPC)
[5] = dose: 25.0 mg/kg/injection, schedule: Q01DX005 (ip), vehicle: Klucel (hydroxypropylcellulose) (HPC)
[6] = dose: 50.0 mg/kg/injection, schedule: Q01DX005 (ip), vehicle: Klucel (hydroxypropylcellulose) (HPC)
[7] = dose: 100.0 mg/kg/injection, schedule: Q01DX005 (ip), vehicle: Klucel (hydroxypropylcellulose) (HPC)
[8] = dose: 200.0 mg/kg/injection, schedule: Q01DX005 (ip), vehicle: Klucel (hydroxypropylcellulose) (HPC)
[9] = dose: 50.0 mg/kg/injection, schedule: Q01DX009 (ip), vehicle: saline with Tween-80
[10] = dose: 100.0 mg/kg/injection, schedule: Q01DX009 (ip), vehicle: saline with Tween-80
[11] = dose: 50.0 mg/kg/injection, schedule: Q01DX009 (ip), vehicle: Klucel (hydroxypropylcellulose) (HPC)
[12] = dose: 50.0 mg/kg/injection, schedule: Q01DX005 (ip), vehicle: saline with Tween-80
[13] = dose: 100.0 mg/kg/injection, schedule: Q01DX005 (ip), vehicle: saline with Tween-80
[14] = dose: 200.0 mg/kg/injection, schedule: Q01DX005 (ip), vehicle: saline with Tween-80

Measured: T/C

CCN(CC)CCCC(C)Nc1ccc2cc(OC)ccc2n1 (stereo unspecified)
inactive: dose: 6.25 mg/kg/injection, schedule: Q01DX005 (ip), vehicle: saline 103 % of control | dose: 12.5 mg/kg/injection, schedule: Q01DX005 (ip), vehicle: saline 103 % of control

CCNC(=O)C(CCO)NC(=O)OCc1ccccc1 (stereo unspecified)
inactive: dose: 12.5 mg/kg/injection, schedule: Q01DX009 (ip), vehicle: distilled water + Tween-80 118 % of control | dose: 25.0 mg/kg/injection, schedule: Q01DX009 (ip), vehicle: distilled water + Tween-80 101 % of control | dose: 50.0 mg/kg/injection, schedule: Q01DX009 (ip), vehicle: distilled water + Tween-80 110 % of control

CONc1ccn(C2OC(CO)C(O)C2O)c(=O)n1 (stereo unspecified)
inactive: [1] 101 % of control and 104 % of control | dose: 25.0 mg/kg/injection, schedule: Q01DX009 (ip), vehicle: saline 112 % of control and 117 % of control | dose: 50.0 mg/kg/injection, schedule: Q01DX009 (ip), vehicle: saline 99 % of control and 113 % of control | dose: 100.0 mg/kg/injection, schedule: Q01DX009 (ip), vehicle: saline 112 % of control

CC(C)(C)C1CC=CC(=O)CC1 (stereo unspecified)
inactive: [2] 111 % of control | [3] 119 % of control

CC(C)C(=O)[O][Bi]([c]1ccccc1)[c]1ccccc1
inactive: dose: 6.25 mg/kg/injection, schedule: Q01DX005 (ip), vehicle: Klucel (hydroxypropylcellulose) (HPC) 108 % of control and 110 % of control | [4] 101 % of control and 113 % of control | [5] 105 % of control and 113 % of control

O=C(O)C(Cc1ccccc1)Nc1ncnc2nc[nH]c12 (stereo unspecified)
inactive: [6] 93 % of control | [7] 100 % of control | [8] 100 % of control

Cc1ccc(CCNC(=O)c2c3nc4c(C(=O)NCCc5ccc(C)cc5)ccc(C)c4oc-3c(C)c(=O)c2N)cc1
inactive: dose: 25.0 mg/kg/injection, schedule: Q04DX003 (ip), vehicle: DMSO 98 % of control | dose: 50.0 mg/kg/injection, schedule: Q04DX003 (ip), vehicle: DMSO 99 % of control | dose: 100.0 mg/kg/injection, schedule: Q04DX003 (ip), vehicle: DMSO 91 % of control

COc1ccc(C=C2C(=O)N(C)C(=O)N(C)C2=O)cc1
inactive: [9] 112 % of control | [10] 118 % of control

O=C(O)/C(Br)=C/c1ccccc1
inactive: [9] 87 % of control | [10] 91 % of control | dose: 200.0 mg/kg/injection, schedule: Q01DX009 (ip), vehicle: saline with Tween-80 87 % of control

NC1(C(=O)O)CCSCC1
inactive: [6] 101 % of control | [7] 102 % of control | [8] 90 % of control

FC(F)(F)C[P+](c1ccccc1)(c1ccccc1)c1ccccc1
inactive: dose: 12.5 mg/kg/injection, schedule: Q01DX001 (ip), vehicle: saline 100 % of control and 109 % of control | dose: 25.0 mg/kg/injection, schedule: Q01DX001 (ip), vehicle: saline 108 % of control and 117 % of control | dose: 50.0 mg/kg/injection, schedule: Q01DX001 (ip), vehicle: saline 104 % of control

Cc1ccc(C(=O)C2C(=O)C(=O)OC2C2OC(=O)C(=O)C2C(=O)c2ccc(C)cc2)cc1 (stereo unspecified)
inactive: dose: 60.0 mg/kg/injection, schedule: Q01DX005 (ip), vehicle: saline + Tween-80 + alcohol 101 % of control | dose: 120.0 mg/kg/injection, schedule: Q01DX005 (ip), vehicle: saline + Tween-80 + alcohol 104 % of control | dose: 240.0 mg/kg/injection, schedule: Q01DX005 (ip), vehicle: saline + Tween-80 + alcohol 102 % of control

COc1ccc(NCCc2ccc(-n3ncc(C(=O)NN)c3N)nn2)cc1OC
inactive: dose: 75.0 mg/kg/injection, schedule: Q01DX005 (ip), vehicle: other 93 % of control | dose: 150.0 mg/kg/injection, schedule: Q01DX005 (ip), vehicle: other 93 % of control | dose: 250.0 mg/kg/injection, schedule: Q01DX005 (oral), vehicle: water 100 % of control | dose: 500.0 mg/kg/injection, schedule: Q01DX005 (oral), vehicle: water 107 % of control | dose: 1000.0 mg/kg/injection, schedule: Q01DX005 (oral), vehicle: water 110 % of control

O=P(C(=S)Nc1ccccc1Cl)(c1ccccc1)c1ccccc1
inactive: [11] 100 % of control | [2] 91 % of control | [3] 90 % of control

NNc1nc(N2CCCCC2)ns1
inactive: dose: 2.5 mg/kg/injection, schedule: Q01DX009 (ip), vehicle: saline with Tween-80 98 % of control | dose: 5.0 mg/kg/injection, schedule: Q01DX009 (ip), vehicle: saline with Tween-80 110 % of control | dose: 10.0 mg/kg/injection, schedule: Q01DX009 (ip), vehicle: saline with Tween-80 120 % of control

C=C1C[C@H](O)[C@H]2C(C[Se]c3ccccc3)C(=O)O[C@@H]2[C@H]2[C@H](C)C(=O)C[C@@H]12 (stereo partly specified)
inactive: dose: 60.0 mg/kg/injection, schedule: Q01DX005 (ip), vehicle: saline with Tween-80 97 % of control | dose: 120.0 mg/kg/injection, schedule: Q01DX005 (ip), vehicle: saline with Tween-80 95 % of control | dose: 240.0 mg/kg/injection, schedule: Q01DX005 (ip), vehicle: saline with Tween-80 92 % of control

O=C(CCl)NC1(C(=O)O)CCCC1
inactive: [11] 94 % of control | [2] 90 % of control | [3] 97 % of control

O=C(N/C=C/c1ccco1)NC1CCCCCCCCCCC1
inactive: [4] 95 % of control | [5] 92 % of control | [6] 89 % of control

NC(=S)c1ccccc1N=Cc1cccs1
inactive: dose: 100.0 mg/kg/injection, schedule: Q01DX001 (ip), vehicle: saline 100 % of control | dose: 200.0 mg/kg/injection, schedule: Q01DX001 (ip), vehicle: saline 102 % of control | dose: 400.0 mg/kg/injection, schedule: Q01DX001 (ip), vehicle: saline 98 % of control

O=C(Oc1c(Br)c(N(C(=O)c2ccccc2)c2ccccc2)c(OC(=O)c2ccccc2)c(Br)c1N(C(=O)c1ccccc1)c1ccccc1)c1ccccc1
inactive: [12] 91 % of control | [13] 95 % of control | [14] 89 % of control

C=CCC1C/C=C\COC(=O)CC(C)(C)CC1=O (stereo unspecified)
inactive: dose: 25.0 mg/kg/injection, schedule: Q04DX003 (ip), vehicle: saline 100 % of control | dose: 50.0 mg/kg/injection, schedule: Q04DX003 (ip), vehicle: saline 102 % of control | dose: 100.0 mg/kg/injection, schedule: Q04DX003 (ip), vehicle: saline 102 % of control | dose: 400.0 mg/kg/injection, schedule: Q04DX003 (ip), vehicle: saline 99 % of control

Cc1cc(=O)oc2cc(OC(=O)Nc3ccc(Cl)c(Cl)c3)ccc12
inactive: dose: 3.12 mg/kg/injection, schedule: Q01DX009 (ip), vehicle: saline 101 % of control | dose: 6.25 mg/kg/injection, schedule: Q01DX009 (ip), vehicle: saline 100 % of control | [1] 101 % of control and 90 % of control

Cc1ccc2oc(-c3nnc(N)s3)cc(=O)c2c1
inactive: [12] 100 % of control | [13] 100 % of control | [14] 93 % of control

COC(=O)C1(C)CCCC2(C)c3cc(O)c(C(C)C)cc3CCC12 (stereo unspecified)
inactive: dose: 100.0 mg/kg/injection, schedule: Q01DX001 (ip), vehicle: Klucel (hydroxypropylcellulose) (HPC) 94 % of control | dose: 200.0 mg/kg/injection, schedule: Q01DX001 (ip), vehicle: Klucel (hydroxypropylcellulose) (HPC) 94 % of control | dose: 400.0 mg/kg/injection, schedule: Q01DX001 (ip), vehicle: Klucel (hydroxypropylcellulose) (HPC) 100 % of control

C=CC1CN2CCC1CC2C(=O)c1ccnc2ccc(OC)cc12 (stereo unspecified)
inactive: [12] 100 % of control | [13] 100 % of control | [14] 100 % of control
